Several values for one entry are separate records, joined by “and”; a condition that tells them apart may be missing. Identical values can stand only once. Inconclusive results and toxic doses are left out.
Tested on: L1210 leukemia ip in BDF1 mice, survival T/C
Assay: NCI In Vivo Anticancer Drug Screen. Data for tumor model L1210 Leukemia (intraperitoneal) in B6D2F1 (BDF1) mice
Conditions: endpoint: mean survival time, higher = longer survival
Outline: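 Survival endpoint. Drug-treated group vs vehicle group, expressed as T divided by C. Tumor passaged by transplantation.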

[1] = dose: 100.0 mg/kg/injection, schedule: Q01DX001 (ip), vehicle: carboxymethylcellulose (CMC)
[2] = dose: 100.0 mg/kg/injection, schedule: Q04DX003 (ip), vehicle: Klucel (hydroxypropylcellulose) (HPC)
[3] = dose: 200.0 mg/kg/injection, schedule: Q04DX003 (ip), vehicle: Klucel (hydroxypropylcellulose) (HPC)
[4] = dose: 100.0 mg/kg/injection, schedule: Q01DX001 (ip), vehicle: Klucel (hydroxypropylcellulose) (HPC)
[5] = dose: 100.0 mg/kg/injection, schedule: Q01DX009 (ip), vehicle: Klucel (hydroxypropylcellulose) (HPC)
[6] = dose: 200.0 mg/kg/injection, schedule: Q01DX001 (ip), vehicle: Klucel (hydroxypropylcellulose) (HPC)
[7] = dose: 200.0 mg/kg/injection, schedule: Q01DX009 (ip), vehicle: Klucel (hydroxypropylcellulose) (HPC)
[8] = dose: 200.0 mg/kg/injection, schedule: Q01DX001 (ip), vehicle: carboxymethylcellulose (CMC)
[9] = dose: 400.0 mg/kg/injection, schedule: Q01DX001 (ip), vehicle: carboxymethylcellulose (CMC)
[10] = dose: 400.0 mg/kg/injection, schedule: Q04DX003 (ip), vehicle: Klucel (hydroxypropylcellulose) (HPC)

S=c1nc[nH]c2nc[nH]c12.[Ag]
T/C (dose: 3.0 mg/kg/injection, schedule: Q01DX009 (ip), vehicle: carboxymethylcellulose (CMC)): 106 % of control and 92 % of control | T/C (dose: 6.0 mg/kg/injection, schedule: Q01DX009 (ip), vehicle: carboxymethylcellulose (CMC)): 101 % of control | T/C (dose: 12.0 mg/kg/injection, schedule: Q01DX009 (ip), vehicle: carboxymethylcellulose (CMC)): 113 % of control | T/C (dose: 50.0 mg/kg/injection, schedule: Q01DX009 (ip), vehicle: carboxymethylcellulose (CMC)): 113 % of control and 119 % of control | T/C (dose: 400.0 mg/kg/injection, schedule: Q01DX009 (ip), vehicle: carboxymethylcellulose (CMC)): 101 % of control | T/C (dose: 600.0 mg/kg/injection, schedule: Q01DX009 (ip), vehicle: carboxymethylcellulose (CMC)): 154 % of control | T/C (dose: 800.0 mg/kg/injection, schedule: Q01DX009 (ip), vehicle: carboxymethylcellulose (CMC)): 157 % of control and 159 % of control | T/C (dose: 800.0 mg/kg/injection, schedule: Q01DX009 (ip), vehicle: saline): 154 % of control | T/C (dose: 1000.0 mg/kg/injection, schedule: Q01DX009 (ip), vehicle: carboxymethylcellulose (CMC)): 119 % of control | T/C (dose: 1000.0 mg/kg/injection, schedule: Q01DX009 (ip), vehicle: saline): 154 % of control

S=C(S)N1CCOCC1.[Cu+2]
T/C (dose: 50.0 mg/kg/injection, schedule: Q01DX001 (ip), vehicle: carboxymethylcellulose (CMC)): 88 % of control | T/C [1]: 107 % of control

CCP(CC)c1ccccc1
T/C (dose: 100.0 mg/kg/injection, schedule: Q01DX009 (sc), vehicle: olive oil, sesame oil, peanut oil): 100 % of control | T/C (dose: 100.0 mg/kg/injection, schedule: Q04DX003 (sc), vehicle: olive oil, sesame oil, peanut oil): 98 % of control | T/C (dose: 200.0 mg/kg/injection, schedule: Q01DX009 (sc), vehicle: olive oil, sesame oil, peanut oil): 102 % of control | T/C (dose: 200.0 mg/kg/injection, schedule: Q04DX003 (sc), vehicle: olive oil, sesame oil, peanut oil): 96 % of control | T/C (dose: 400.0 mg/kg/injection, schedule: Q01DX009 (sc), vehicle: olive oil, sesame oil, peanut oil): 107 % of control | T/C (dose: 400.0 mg/kg/injection, schedule: Q04DX003 (sc), vehicle: olive oil, sesame oil, peanut oil): 98 % of control

N=C(N)SCc1cccc(Cl)c1
T/C (dose: 25.0 mg/kg/injection, schedule: Q04DX002 (ip), vehicle: saline with Tween-80): 100 % of control | T/C (dose: 50.0 mg/kg/injection, schedule: Q04DX002 (ip), vehicle: saline with Tween-80): 93 % of control | T/C (dose: 100.0 mg/kg/injection, schedule: Q04DX002 (ip), vehicle: saline with Tween-80): 90 % of control

O=NN(CC(F)(F)F)C(=O)NCC(F)(F)F
T/C (dose: 8.0 mg/kg/injection, schedule: Q01DX001 (ip), vehicle: carboxymethylcellulose (CMC)): 113 % of control | T/C (dose: 16.0 mg/kg/injection, schedule: Q01DX001 (ip), vehicle: carboxymethylcellulose (CMC)): 113 % of control | T/C (dose: 31.0 mg/kg/injection, schedule: Q01DX001 (ip), vehicle: carboxymethylcellulose (CMC)): 113 % of control | T/C (dose: 62.0 mg/kg/injection, schedule: Q01DX001 (ip), vehicle: carboxymethylcellulose (CMC)): 113 % of control | T/C (dose: 125.0 mg/kg/injection, schedule: Q01DX001 (ip), vehicle: carboxymethylcellulose (CMC)): 113 % of control | T/C (dose: 187.0 mg/kg/injection, schedule: Q01DX001 (ip), vehicle: carboxymethylcellulose (CMC)): 112 % of control | T/C (dose: 250.0 mg/kg/injection, schedule: Q01DX001 (ip), vehicle: carboxymethylcellulose (CMC)): 107 % of control | T/C (dose: 375.0 mg/kg/injection, schedule: Q01DX001 (ip), vehicle: carboxymethylcellulose (CMC)): 113 % of control | T/C (dose: 500.0 mg/kg/injection, schedule: Q01DX001 (ip), vehicle: carboxymethylcellulose (CMC)): 118 % of control

COC12OCC(O)C1OC(=O)C2O (configuration not stated)
T/C (dose: 50.0 mg/kg/injection, schedule: Q04DX002 (ip), vehicle: saline): 91 % of control | T/C (dose: 100.0 mg/kg/injection, schedule: Q04DX002 (ip), vehicle: saline): 91 % of control | T/C (dose: 200.0 mg/kg/injection, schedule: Q04DX002 (ip), vehicle: saline): 95 % of control

CCOC=NC1=C(Cl)C(=O)C(N=COCC)=C(Cl)C1=O
T/C [2]: 92 % of control | T/C [3]: 94 % of control

COCCOC(=O)C(=O)OCCOC
T/C (dose: 50.0 mg/kg/injection, schedule: Q01DX009 (ip), vehicle: Klucel (hydroxypropylcellulose) (HPC)): 95 % of control | T/C [4]: 97 % of control | T/C [5]: 97 % of control | T/C [6]: 90 % of control | T/C [7]: 93 % of control

O=c1[nH]c2cc([N+](=O)[O-])ccc2c2ccc(Cl)cc12
T/C [1]: 102 % of control | T/C [8]: 91 % of control | T/C [9]: 95 % of control

O=c1[nH]c2cc(Cl)ccc2c2ccccc12
T/C [1]: 99 % of control | T/C [8]: 97 % of control | T/C [9]: 95 % of control

O=C(Cl)COc1cc(Cl)c(Cl)cc1Cl
T/C (dose: 100.0 mg/kg/injection, schedule: Q04DX002 (ip), vehicle: gum acacia): 106 % of control | T/C (dose: 200.0 mg/kg/injection, schedule: Q04DX002 (ip), vehicle: gum acacia): 110 % of control

CCSc1nc(N)c(C(N)=O)cc1C#N
T/C [5]: 95 % of control | T/C [2]: 101 % of control | T/C [7]: 95 % of control | T/C [3]: 98 % of control | T/C [10]: 97 % of control

O=C(c1ccc(C(=O)N(c2ccccc2)C2CCCCC2)cc1)N(c1ccccc1)C1CCCCC1
T/C [5]: 96 % of control | T/C [7]: 100 % of control | T/C (dose: 400.0 mg/kg/injection, schedule: Q01DX009 (ip), vehicle: Klucel (hydroxypropylcellulose) (HPC)): 86 % of control

CC(=O)OC1/C(=C/c2ccco2)CCC2CCCCC21C (configuration not stated)
T/C (dose: 50.0 mg/kg/injection, schedule: Q01DX009 (ip), vehicle: saline): 96 % of control | T/C (dose: 100.0 mg/kg/injection, schedule: Q01DX001 (ip), vehicle: saline): 91 % of control | T/C (dose: 100.0 mg/kg/injection, schedule: Q01DX009 (ip), vehicle: saline): 103 % of control | T/C (dose: 200.0 mg/kg/injection, schedule: Q01DX001 (ip), vehicle: saline): 88 % of control | T/C (dose: 200.0 mg/kg/injection, schedule: Q01DX009 (ip), vehicle: saline): 108 % of control | T/C (dose: 400.0 mg/kg/injection, schedule: Q01DX001 (ip), vehicle: saline): 93 % of control

O=C(N/N=C(\C=N\NC(=O)c1ccccc1)CC(O)C(O)CO)c1ccccc1 (configuration not stated)
T/C [2]: 91 % of control | T/C [3]: 96 % of control | T/C [10]: 93 % of control

CCCCCCCCCCCCCCCCNS(=O)(=O)c1ccc(Br)cc1
T/C [4]: 96 % of control | T/C [2]: 91 % of control | T/C [6]: 93 % of control | T/C [3]: 95 % of control | T/C (dose: 400.0 mg/kg/injection, schedule: Q01DX001 (ip), vehicle: Klucel (hydroxypropylcellulose) (HPC)): 96 % of control | T/C [10]: 103 % of control

O=c1c(Cl)c(-c2ccccc2)nc2ccccn12
T/C (dose: 12.5 mg/kg/injection, schedule: Q01DX001 (ip), vehicle: saline with Tween-80): 100 % of control | T/C (dose: 25.0 mg/kg/injection, schedule: Q01DX001 (ip), vehicle: saline with Tween-80): 110 % of control | T/C (dose: 50.0 mg/kg/injection, schedule: Q01DX001 (ip), vehicle: saline with Tween-80): 93 % of control

C=C(C/C(=C/S(C)=O)c1ccccc1)c1ccccc1 (configuration not stated)
T/C (dose: 75.0 mg/kg/injection, schedule: Q01DX001 (ip), vehicle: saline): 97 % of control | T/C (dose: 150.0 mg/kg/injection, schedule: Q01DX001 (ip), vehicle: saline): 96 % of control | T/C (dose: 300.0 mg/kg/injection, schedule: Q01DX001 (ip), vehicle: saline): 91 % of control
